From PMC6635429, “A 4-cyano-3-methylisoquinoline inhibitor of Plasmodium falciparum growth targets the sodium efflux pump PfATP4” (Scientific Reports, 2019) come the findings set out here.

Common to all, as to type: biochemical
The target of test [1] is T1, PfATP4 (Plasmodium falciparum, UniProt A0A143ZZK9).
T1 construct: gene ATP4; native PfATP4 in P. falciparum membrane preparations (3D7)
Briefly: cipargamin-sensitive Na+-dependent ATPase activity (Pi release) in parasite membranes.

Test [2] addresses T1, PfATP4. Briefly: cipargamin-sensitive Na+-dependent ATPase activity (Pi release) in parasite membranes; resistance mutation S374R.
Test [3] addresses T2, PfATP4 (Plasmodium falciparum, UniProt A0A143ZZK9, S374R).
T2 construct: gene ATP4; PfATP4 S374R in membranes from B7 parasites
T2 sequence (A0A143ZZK9 1-1264 S374R): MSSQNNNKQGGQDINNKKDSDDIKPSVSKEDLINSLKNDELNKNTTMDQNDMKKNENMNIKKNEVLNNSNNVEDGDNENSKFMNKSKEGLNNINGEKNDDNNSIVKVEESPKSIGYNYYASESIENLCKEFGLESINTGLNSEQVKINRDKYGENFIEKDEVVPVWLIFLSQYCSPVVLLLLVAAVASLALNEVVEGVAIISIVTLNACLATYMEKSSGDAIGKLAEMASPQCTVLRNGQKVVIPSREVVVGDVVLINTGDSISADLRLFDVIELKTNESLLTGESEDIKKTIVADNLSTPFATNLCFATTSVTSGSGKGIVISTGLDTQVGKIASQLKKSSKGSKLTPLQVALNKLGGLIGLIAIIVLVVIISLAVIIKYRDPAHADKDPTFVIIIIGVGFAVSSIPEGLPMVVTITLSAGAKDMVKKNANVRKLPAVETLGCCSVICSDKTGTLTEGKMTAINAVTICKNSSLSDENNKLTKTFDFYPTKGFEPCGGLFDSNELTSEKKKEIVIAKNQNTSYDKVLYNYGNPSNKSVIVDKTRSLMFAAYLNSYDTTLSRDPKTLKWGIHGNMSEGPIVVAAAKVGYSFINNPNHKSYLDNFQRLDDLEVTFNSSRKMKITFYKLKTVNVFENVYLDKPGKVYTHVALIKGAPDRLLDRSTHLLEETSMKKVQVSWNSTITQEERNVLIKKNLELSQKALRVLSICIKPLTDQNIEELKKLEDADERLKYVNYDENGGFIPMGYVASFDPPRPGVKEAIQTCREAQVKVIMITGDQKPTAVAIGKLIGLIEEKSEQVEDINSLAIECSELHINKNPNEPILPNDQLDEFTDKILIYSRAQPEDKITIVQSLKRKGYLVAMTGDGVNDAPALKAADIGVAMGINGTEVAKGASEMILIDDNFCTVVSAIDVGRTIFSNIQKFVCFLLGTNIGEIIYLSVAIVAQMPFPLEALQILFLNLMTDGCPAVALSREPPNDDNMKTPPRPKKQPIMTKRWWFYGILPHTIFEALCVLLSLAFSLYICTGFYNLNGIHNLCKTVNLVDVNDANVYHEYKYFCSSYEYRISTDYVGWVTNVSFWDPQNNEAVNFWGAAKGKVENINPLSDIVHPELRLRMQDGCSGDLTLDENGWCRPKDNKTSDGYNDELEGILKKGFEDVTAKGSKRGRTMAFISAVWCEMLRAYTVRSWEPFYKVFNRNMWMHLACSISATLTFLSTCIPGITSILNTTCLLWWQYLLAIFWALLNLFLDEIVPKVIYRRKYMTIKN
Briefly: cipargamin-sensitive Na+-dependent ATPase activity (Pi release) in membranes of resistant parasites.

Molecules are shown by their SMILES.

As usually defined, the IC50 is the concentration that inhibits the measured activity by half. High values mean weaker potency in that assay, low ones greater potency in that assay. As for `Cc1nc(N[C@@H](C)c2ccccc2)c2ccccc2c1C#N` [MB10], the IC50 in test [1] turned out to be 62 ± 9 nM.
For the compound `CCC(CC)Nc1nc(C)c(C#N)c2ccccc12` [MB14, 3-methyl-1-(1-ethylpropylamino)isoquinoline-4-carbonitrile], the IC50 in test [2] was 52 ± 16 nM; in test [3] it was 429 ± 73 nM.
